Assay results: article PMC10529594, “Strasseriolides display in vitro and in vivo activity against trypanosomal parasites and cause morphological and size defects in Trypanosoma cruzi” (PLOS Neglected Tropical Diseases, 2023)
Several values for one entry are separate records, joined by “and”; a condition that tells them apart may be missing. Equal values may be shown once. Read-outs that look alike come from different tables or passages of the source.

Legend:
[1] = set-up: method as in PMID 34865639; conditions: cited from earlier work
T. cruzi epimastigotes = test: Microscopy analysis of T. cruzi epimastigotes (DAPI cell cycle, DIC morphology); format: cell-based, Trypanosoma cruzi; conditions: for % Cells 0N1K, Average / % Cells 1N1K1F, Average / % Cells 1N*1K*1F, Average / % Cells 1N*2K2F, Average / % Cells 2N1K, Average / % Cells 2N2K2F, Average / % Cells Other, Average / % Cells 0N1K, individual replicates / % Cells 1N1K1F, individual replicates / % Cells 1N*1K*1F, individual replicates / % Cells 1N*2K2F, individual replicates / % Cells 2N1K, individual replicates / % Cells 2N2K2F, individual replicates / % Cells Other, individual replicates: 72-hour drug exposure, DAPI staining
Description: For morphological phenotypic analysis and further confirmation of cell cycle analysis by FACS, T. cruzi epimastigotes were grown for 72 hours in a 6-well plate in the presence and absence of drugs. Briefly, 1 × 10^6 parasites of each condition were harvested and fixed in 4% p-formaldehyde at 4°C for 20 minutes, washed twice with cold PBS, and placed on poly-L-lysine-coated slides. Followed by dehydration in methanol, parasite samples were stained and mounted with DAPI Prolong. Digital images were acquired with a Leica DMi8 microscope in Tile Scan mode with […] excitation to quantify DAPI stained nuclei and kinetoplasts of the parasite population. Transmitted light microscopy was used to acquire differential interference contrast (DIC) images (> 80 individual cells in each of two independent experiments).

[2] = test system: L. donovani MHOM/ET/67/HU3 transgenic intracellular amastigotes; test: L. donovani intracellular amastigote assay (luciferase, THP-1 macrophages); format: cell-based; conditions: Leishmania donovani, THP-1, 72 h, read-out: EC50 L. donovani
Description: Leishmania donovani MHOM/ET/67/HU3 cells with the luciferase gene integrated into the parasite genome was obtained as described. Parasites were grown at 28°C in RPMI 1640-modified medium supplemented with 20% heat-inactivated fetal bovine serum (iFBS, Invitrogen) with […] of hygromycin B.
THP-1 cells were differentiated into macrophages with 20 ng/mL of PMA in a 96-well plate at 3 × 10^4 cells per well for 48 hours followed by 24 hours of culture in fresh medium. Cells were then infected with transgenic stationary L. donovani MHOM/ET/67/HU3 promastigotes expressing the luciferase gene at a multiplicity of infection (MOI) of 10. A volume of 100 μL of culture media containing the test compounds was added to each well and the plates were incubated at 37°C for 72 hours. Luminescence was measured using the Promega kit luciferase assay system.

L6 rat myoblast cells = test: Cytotoxicity evaluation in L6 cells (resazurin); format: cell-based; conditions: for EC50: Rattus norvegicus, Myoblast, 72 h, read-out: EC50 L6
Description: One hundred microliters of supplemented RPMI 1640 medium containing the compounds and controls were added to L6 rat myoblast cells previously seeded (4,000 cells per well) in a 96-well microplate. After 72 hours at 37°C the viable cell number was determined by resazurin reduction. 20 μL of resazurin at 0.11 mg/mL in PBS 1X were added to each well and incubated in the dark for 2 hours at 37°C. Cell viability was estimated by measuring the final fluorescence at 570–590 nm in a Tecan Infinite F200 plate reader.

[3] = test system: intracellular T. cruzi amastigotes; test: Rate of kill, intracellular T. cruzi amastigotes (CPRG, 96-well); format: cell-based, Trypanosoma cruzi; conditions: for EC90/EC50 / Hill slope / EC50: Amastigotes; for Growth inhibition (%), individual replicates / inhibition at 50 µM: T. cruzi amastigotes, 50 µM; for inhibition at 50 µM / EC50: Trypanosoma cruzi
Description: For rate of kill experiments, in vitro activity against intracellular T. cruzi amastigotes was analyzed at early time points: 24, 48 and 72 hours. The standard colorimetric transgenic assay was established in a 96-well format, with serial dilutions of compounds and 0.05% as the final maximal DMSO percentage per well. In these experiments L6 host cells were included as negative controls and CPRG conversion was monitored at 585 nm using a Versamax microplate reader (Molecular devices).

[4] = test system: transgenic Trypanosoma cruzi Brazil strain expressing firefly luciferase; test: In vivo efficacy, acute T. cruzi infection in BALB/c mice (luciferase imaging); conditions: for Total counts, Average: vehicle average 8050000
Description: In vivo experiments were performed at the Anti-infectives Screening Core Services facility of the New York University School of Medicine. The transgenic Trypanosoma cruzi Brazil strain expressing firefly luciferase was used. Groups of five female BALB/c mice were infected with 2 × 10^6 T. cruzi trypomastigotes. […] Quantification is based on luciferase activity of the parasites after i.p. injection of 150 mg/Kg D-luciferin potassium-salt in PBS. Luminescence is measured on the fifth day using an IVIS Lumina II imager.

C/C1=C\[C@H](C)[C@@H](O)C[C@@H](O)/C(C)=C/[C@H](C)C[C@@H](C)CC[C@@H]([C@@H](C)C(=O)O)OC(=O)[C@@H](C)C1 [Strasseriolide D, strasseriolide D]
liver microsome clearance [1]: low
% Cells 0N1K, Average (T. cruzi epimastigotes; EC30, average): 1.2%
% Cells 1N1K1F, Average (T. cruzi epimastigotes; EC30, average): 57.325%
% Cells 1N*1K*1F, Average (T. cruzi epimastigotes; EC30, average): 6.55%
% Cells 1N*2K2F, Average (T. cruzi epimastigotes; EC30, average): 2.85%
% Cells 2N1K, Average (T. cruzi epimastigotes; EC30, average): 4.5%
% Cells 2N2K2F, Average (T. cruzi epimastigotes; EC30, average): 26.325%
% Cells Other, Average (T. cruzi epimastigotes; EC30, average): 1.25%
% Cells 0N1K, individual replicates (T. cruzi epimastigotes; EC30, single replicates): 0% and 2.4%
% Cells 1N1K1F, individual replicates (T. cruzi epimastigotes; EC30, single replicates): 56.25% and 58.4%
% Cells 1N*1K*1F, individual replicates (T. cruzi epimastigotes; EC30, single replicates): 7.5% and 5.6%
% Cells 1N*2K2F, individual replicates (T. cruzi epimastigotes; EC30, single replicates): 2.5% and 3.2%
% Cells 2N1K, individual replicates (T. cruzi epimastigotes; EC30, single replicates): 5% and 4%
% Cells 2N2K2F, individual replicates (T. cruzi epimastigotes; EC30, single replicates): 26.25% and 26.4%
% Cells Other, individual replicates (T. cruzi epimastigotes; EC30, single replicates): 2.5% and 0%
% Cells 0N1K, Average (T. cruzi epimastigotes; EC70, average): 0.4587%
% Cells 1N1K1F, Average (T. cruzi epimastigotes; EC70, average): 62.2955%
% Cells 1N*1K*1F, Average (T. cruzi epimastigotes; EC70, average): 3.438%
% Cells 1N*2K2F, Average (T. cruzi epimastigotes; EC70, average): 5.902%
% Cells 2N1K, Average (T. cruzi epimastigotes; EC70, average): 3.953%
% Cells 2N2K2F, Average (T. cruzi epimastigotes; EC70, average): 19.5971%
% Cells Other, Average (T. cruzi epimastigotes; EC70, average): 4.355%
% Cells 0N1K, individual replicates (T. cruzi epimastigotes; EC70, single replicates): 0% and 0.9174%
% Cells 1N1K1F, individual replicates (T. cruzi epimastigotes; EC70, single replicates): 56.701% and 67.8899%
% Cells 1N*1K*1F, individual replicates (T. cruzi epimastigotes; EC70, single replicates): 4.124% and 2.752%
% Cells 1N*2K2F, individual replicates (T. cruzi epimastigotes; EC70, single replicates): 7.216% and 4.587%
% Cells 2N1K, individual replicates (T. cruzi epimastigotes; EC70, single replicates): 5.155% and 2.752%
% Cells 2N2K2F, individual replicates (T. cruzi epimastigotes; EC70, single replicates): 22.6804% and 16.5138%
% Cells Other, individual replicates (T. cruzi epimastigotes; EC70, single replicates): 4.124% and 4.587%
EC50 [2]: 13.6 µM
EC50 (L6 rat myoblast cells; resazurin): > 100 µM

C/C1=C\[C@H](C)C(=O)C[C@@H](O)/C(C)=C/[C@H](C)C[C@@H](C)CC[C@@H]([C@@H](C)C(=O)O)OC(=O)[C@@H](C)C1 [Strasseriolide C, strasseriolide C]
liver microsome clearance [1]: medium
EC90/EC50 ([3]; 24 h): 3.78
Hill slope ([3]; 24 h): 1.70
EC90/EC50 ([3]; 48 h): 2.65
Hill slope ([3]; 48 h): 2.31
EC90/EC50 ([3]; 72 h): 2.43
Hill slope ([3]; 72 h): 2.48
Growth inhibition (%), individual replicates ([3]; 24 h, single replicates): 74.7423%
Growth inhibition (%), individual replicates ([3]; 48 h, single replicates): 94.7649% and 95.5652%
Growth inhibition (%), individual replicates ([3]; 72 h, single replicates): 98.6747% and 99.1566%
inhibition at 50 µM ([3]; 24 h, 24 h, average, read-out: Growth inhibition (%), Average): 73.4%
inhibition at 50 µM ([3]; 24 h, 24 h, single replicates, read-out: Growth inhibition (%), individual replicates): 72.7%
inhibition at 50 µM ([3]; 48 h, 48 h, average, read-out: Growth inhibition (%), Average): 94.9%
inhibition at 50 µM ([3]; 48 h, 48 h, single replicates, read-out: Growth inhibition (%), individual replicates): 94.2%
inhibition at 50 µM ([3]; 72 h, 72 h, average, read-out: Growth inhibition (%), Average): 98.8%
inhibition at 50 µM ([3]; 72 h, 72 h, single replicates, read-out: Growth inhibition (%), individual replicates): 98.6%
EC50 ([3]; 24 h): 10.3 µM
EC50 ([3]; 48 h): 5.25 µM
EC50 ([3]; 72 h): 5.3 µM
% Cells 0N1K, Average (T. cruzi epimastigotes; EC30, average): 0.9709%
% Cells 1N1K1F, Average (T. cruzi epimastigotes; EC30, average): 66.0194%
% Cells 1N*1K*1F, Average (T. cruzi epimastigotes; EC30, average): 4.854%
% Cells 1N*2K2F, Average (T. cruzi epimastigotes; EC30, average): 2.913%
% Cells 2N1K, Average (T. cruzi epimastigotes; EC30, average): 4.854%
% Cells 2N2K2F, Average (T. cruzi epimastigotes; EC30, average): 19.4175%
% Cells Other, Average (T. cruzi epimastigotes; EC30, average): 0.9709%
% Cells 0N1K, individual replicates (T. cruzi epimastigotes; EC30, single replicates): 0.9709%
% Cells 1N1K1F, individual replicates (T. cruzi epimastigotes; EC30, single replicates): 70.8738% and 61.165%
% Cells 1N*1K*1F, individual replicates (T. cruzi epimastigotes; EC30, single replicates): 4.854%
% Cells 1N*2K2F, individual replicates (T. cruzi epimastigotes; EC30, single replicates): 2.913%
% Cells 2N1K, individual replicates (T. cruzi epimastigotes; EC30, single replicates): 6.796% and 2.913%
% Cells 2N2K2F, individual replicates (T. cruzi epimastigotes; EC30, single replicates): 13.5922% and 25.2427%
% Cells Other, individual replicates (T. cruzi epimastigotes; EC30, single replicates): 0% and 1.942%
% Cells 0N1K, Average (T. cruzi epimastigotes; EC70, average): 3.4269%
% Cells 1N1K1F, Average (T. cruzi epimastigotes; EC70, average): 57.8968%
% Cells 1N*1K*1F, Average (T. cruzi epimastigotes; EC70, average): 5.388%
% Cells 1N*2K2F, Average (T. cruzi epimastigotes; EC70, average): 3.4269%
% Cells 2N1K, Average (T. cruzi epimastigotes; EC70, average): 2.951%
% Cells 2N2K2F, Average (T. cruzi epimastigotes; EC70, average): 24.9207%
% Cells Other, Average (T. cruzi epimastigotes; EC70, average): 2.961%
% Cells 0N1K, individual replicates (T. cruzi epimastigotes; EC70, single replicates): 2.9703% and 3.8835%
% Cells 1N1K1F, individual replicates (T. cruzi epimastigotes; EC70, single replicates): 63.3663% and 52.4272%
% Cells 1N*1K*1F, individual replicates (T. cruzi epimastigotes; EC70, single replicates): 4.9505% and 5.825%
% Cells 1N*2K2F, individual replicates (T. cruzi epimastigotes; EC70, single replicates): 2.9703% and 3.8835%
% Cells 2N1K, individual replicates (T. cruzi epimastigotes; EC70, single replicates): 3.9604% and 1.942%
% Cells 2N2K2F, individual replicates (T. cruzi epimastigotes; EC70, single replicates): 16.8317% and 33.0097%
% Cells Other, individual replicates (T. cruzi epimastigotes; EC70, single replicates): 4.9505% and 0.9709%
morphological changes (DIC microscopy) (T. cruzi epimastigotes; 72 h, at EC70): smaller and rounded parasites
EC50 [2]: 6.63 µM
Total counts, individual mouse ([4]; 50 mg/kg i.p. 5 days from 72 h post-infection, 50 mg/kg): 1820000 and 5150000 and 2580000 and 6540000 and 3640000
Total counts, Average ([4]; 50 mg/kg i.p. 5 days from 72 h post-infection): 3940000
parasitaemia in vivo ([4]; acute infection model, 50 mg/Kg i.p., 5 days): lowers parasitaemia
EC50 (L6 rat myoblast cells; resazurin): > 50 µM

O=C(Cn1ccnc1[N+](=O)[O-])NCc1ccccc1 [Benznidazole, benznidazole]
Hill slope ([3]; 24 h): 1.06
Hill slope ([3]; 48 h): 1.24
Hill slope ([3]; 72 h): 1.99
EC50 ([3]; 24 h): 2.87 µM
EC50 ([3]; 48 h): 1.03 µM
EC50 ([3]; 72 h): 0.89 µM
Total counts, individual mouse ([4]; 30 mg/kg i.p. 5 days, 30 mg/kg): 4950000 and 268000 and 48200 and 38100
Total counts, Average ([4]; 30 mg/kg i.p. 5 days): 1330000

C/C1=C\[C@H](C)CC[C@@H](O)/C(C)=C/[C@H](C)C[C@@H](C)CC[C@@H]([C@@H](C)C(=O)O)OC(=O)[C@@H](C)C1 [Strasseriolide B, strasseriolide B]
EC50 [2]: 0.032 µM
Selectivity index T. cruzi Tulahuen C4 versus L6 cells (L6 rat myoblast cells): 1
EC50 (L6 rat myoblast cells): 0.3 µM

C/C1=C\[C@H](C)CCC(=O)/C(C)=C/[C@H](C)C[C@@H](C)CC[C@@H]([C@@H](C)C(=O)O)OC(=O)[C@@H](C)C1 [Strasseriolide A, strasseriolide A]
EC50 [2]: > 15 µM
Selectivity index T. cruzi Tulahuen C4 versus L6 cells (L6 rat myoblast cells): > 1
EC50 (L6 rat myoblast cells; resazurin): > 50 µM
